What was measured:
SRC = SRC (Homo sapiens (Human), UniProt P12931); assay: SelectScreen Kinase Profiling Services commercial assay (ThermoFisher), SRC; format: biochemical
YES1 = YES1 (Homo sapiens (Human), UniProt P07947); assay: SelectScreen Kinase Profiling Services commercial assay (ThermoFisher), YES1; format: biochemical
YES1, sequence (P07947 whole entry): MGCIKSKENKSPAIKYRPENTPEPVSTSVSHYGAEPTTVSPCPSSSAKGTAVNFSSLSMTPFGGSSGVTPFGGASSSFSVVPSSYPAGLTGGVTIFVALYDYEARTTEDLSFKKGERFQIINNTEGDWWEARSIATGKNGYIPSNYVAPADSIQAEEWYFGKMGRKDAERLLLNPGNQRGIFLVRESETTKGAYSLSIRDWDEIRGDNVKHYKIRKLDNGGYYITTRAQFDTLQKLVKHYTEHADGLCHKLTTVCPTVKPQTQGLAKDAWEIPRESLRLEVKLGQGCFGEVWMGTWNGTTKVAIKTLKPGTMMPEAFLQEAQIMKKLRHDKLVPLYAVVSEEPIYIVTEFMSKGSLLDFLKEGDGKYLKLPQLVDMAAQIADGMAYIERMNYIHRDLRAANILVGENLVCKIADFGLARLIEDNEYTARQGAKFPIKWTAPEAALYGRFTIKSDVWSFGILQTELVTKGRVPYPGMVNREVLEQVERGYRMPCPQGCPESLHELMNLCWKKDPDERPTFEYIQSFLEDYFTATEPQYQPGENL

SRC, sequence (P12931 whole entry): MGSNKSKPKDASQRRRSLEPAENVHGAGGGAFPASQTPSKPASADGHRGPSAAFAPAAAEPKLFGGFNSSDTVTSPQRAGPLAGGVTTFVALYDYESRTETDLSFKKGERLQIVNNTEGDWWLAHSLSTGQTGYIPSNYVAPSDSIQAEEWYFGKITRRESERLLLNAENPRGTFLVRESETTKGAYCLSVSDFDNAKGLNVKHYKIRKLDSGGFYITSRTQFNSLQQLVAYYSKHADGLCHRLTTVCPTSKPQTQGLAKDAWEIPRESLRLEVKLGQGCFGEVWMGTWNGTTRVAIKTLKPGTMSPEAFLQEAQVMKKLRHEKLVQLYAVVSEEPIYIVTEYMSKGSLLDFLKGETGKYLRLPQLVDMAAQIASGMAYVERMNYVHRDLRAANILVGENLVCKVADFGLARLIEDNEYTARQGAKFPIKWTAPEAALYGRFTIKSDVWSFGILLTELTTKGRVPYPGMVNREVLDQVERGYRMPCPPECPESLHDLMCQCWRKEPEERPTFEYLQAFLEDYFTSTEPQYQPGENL

C=CC(=O)Nc1ccccc1Nc1nc(Nc2ccc(N3CCN(C)CC3)cc2)ncc1CC [Compound 2, N-{2-[(5-ethyl-2-{[4-(4-methylpiperazin-1-yl)phenyl]amino}pyrimidin-4-yl)amino]phenyl}prop-2-enamide]
IC50 (SRC): 1 to 10 nM
IC50 (YES1): 1 to 10 nM

C=CC(=O)Nc1ccccc1Nc1nc(Nc2ccc(N3CCN(C)CC3)cc2)ncc1C [Compound 4, N-{2-[(5-methyl-2-{[4-(4-methylpiperazin-1-yl)phenyl]amino}pyrimidin-4-yl)amino]phenyl}prop-2-enamide]
IC50 (SRC): 1 to 10 nM
IC50 (YES1): 1 to 10 nM

C=CC(=O)Nc1ccccc1Nc1nc(Nc2ccc(N3CCN(C)CC3)cc2)ncc1-c1cccs1 [Compound 6, N-(2-((2-((4-(4-methylpiperazin-1-yl)phenyl)amino)-5-(thiophen-2-yl)pyrimidin-4-yl)amino)phenyl)acrylamide]
IC50 (SRC): 1 to 10 nM
IC50 (YES1): 1 to 10 nM

C=CC(=O)Nc1ccccc1Nc1nc(Nc2ccc(N3CCN(C)CC3)cc2)ncc1-c1ccc(OC)nc1 [Compound 9, N-(2-((5-(6-methoxypyridin-3-yl)-2-((4-(4-methylpiperazin-1-yl)phenyl)amino)pyrimidin-4-yl)amino)phenyl)acrylamide]
IC50 (SRC): 1 to 10 nM
IC50 (YES1): 1 to 10 nM

C=CC(=O)Nc1ccccc1Nc1nc(Nc2ccc(N3CCN(C)CC3)cc2)nc2ccsc12 [Compound 11, N-{2-[(2-{[4-(4-methylpiperazin-1-yl)phenyl]amino}thieno[3,2-d]pyrimidin-4-yl)amino]phenyl}prop-2-enamide]
IC50 (SRC): 1 to 10 nM
IC50 (YES1): 1 to 10 nM

C=CC(=O)Nc1ccccc1Nc1nc(Nc2ccc(N3CCN(C)CC3)cc2)nc(N)c1Cl [Compound 13, N-{2-[(6-amino-5-chloro-2-{[4-(4-methylpiperazin-1-yl)phenyl]amino}pyrimidin-4-yl)amino]phenyl}prop-2-enamide]
IC50 (SRC): 10 to 100 nM
IC50 (YES1): 1 to 10 nM

C=CC(=O)Nc1ccccc1Nc1nc(Nc2ccc(N3CCN(C)CC3)cc2)nc2sccc12 [Compound 14, N-{2-[(2-{[4-(4-methylpiperazin-1-yl)phenyl]amino}thieno[2,3-d]pyrimidin-4-yl)amino]phenyl}prop-2-enamide]
IC50 (SRC): 100 to 1000 nM
IC50 (YES1): 10 to 100 nM

C=CC(=O)Nc1ccccc1Nc1nc(Nc2ccc(N3CCN(C)CC3)cc2)ncc1OCc1ccc(C)cc1 [Compound 15, N-(2-((5-((4-methylbenzyl)oxy)-2-((4-(4-methylpiperazin-1-yl)phenyl)amino)pyrimidin-4-yl)amino)phenyl)acrylamide]
IC50 (SRC): 1 to 10 nM
IC50 (YES1): 1 to 10 nM

C=CC(=O)Nc1ccccc1Nc1nc(Nc2ccc(N3CCN(C)CC3)cc2)ncc1OCc1c(C)cccc1Cl [Compound 17, N-(2-((5-((2-chloro-6-methylbenzyl)oxy)-2-((4-(4-methylpiperazin-1-yl)phenyl)amino)pyrimidin-4-yl)amino)phenyl)acrylamide]
IC50 (SRC): 1 to 10 nM

C=CC(=O)Nc1ccccc1Nc1nc(Nc2ccc(N3CCN(C)CC3)cc2)ncc1C(=O)NCc1ccc(Oc2ccccc2)cc1 [Compound 19, 2-{[4-(4-methylpiperazin-1-yl)phenyl]amino}-N-[(4-phenoxyphenyl)methyl]-4-{[2-(prop-2-enamido)phenyl]amino}pyrimidine-5-carboxamide]
IC50 (SRC): > 10000 nM
IC50 (YES1): > 10000 nM

C=CC(=O)Nc1ccccc1Nc1nc(Nc2ccc(N3CCN(C)CC3)cc2)ncc1C(=O)Nc1c(C)cccc1C [Compound 28, N-(2,6-dimethylphenyl)-2-{[4-(4-methylpiperazin-1-yl)phenyl]amino}-4-{[2-(prop-2-enamido)phenyl]amino}pyrimidine-5-carboxamide]
IC50 (SRC): 1 to 10 nM
IC50 (YES1): < 1 nM

C=CC(=O)Nc1ccccc1Nc1nc(Nc2ccc(N3CCN(C)CC3)cc2)ncc1C(=O)Nc1c(C)cc(C(=O)O)cc1Cl [Compound 30, 3-chloro-5-methyl-4-(2-{[4-(4-methylpiperazin-1-yl)phenyl]amino}-4-{[2-(prop-2-enamido)phenyl]amino}pyrimidine-5-amido)benzoic acid]
IC50 (SRC): > 10000 nM

C=CC(=O)Nc1cccc(C)c1Nc1nc(Nc2ccc(N3CCN(C)CC3)cc2)ncc1Cl [Compound 31, N-{2-[(5-chloro-2-{[4-(4-methylpiperazin-1-yl)phenyl]amino}pyrimidin-4-yl)amino]-3-methylphenyl}prop-2-enamide]
IC50 (SRC): 1000 to 10000 nM
IC50 (YES1): 100 to 1000 nM

C=CC(=O)Nc1ccc(C)cc1Nc1nc(Nc2ccc(N3CCN(C)CC3)cc2)ncc1Cl [Compound 32, N-{2-[(5-chloro-2-{[4-(4-methylpiperazin-1-yl)phenyl]amino}pyrimidin-4-yl)amino]-4-methylphenyl}prop-2-enamide]
IC50 (SRC): 10 to 100 nM
IC50 (YES1): 1 to 10 nM

C=CC(=O)Nc1ccc(C)cc1Nc1nc(Nc2ccc(N3CCN(C)CC3)cc2)ncc1C(=O)Nc1c(C)cccc1Cl [Compound 35, N-(2-chloro-6-methylphenyl)-4-{[5-methyl-2-(prop-2-enamido)phenyl]amino}-2-{[4-(4-methylpiperazin-1-yl)phenyl]amino}pyrimidine-5-carboxamide]
IC50 (SRC): 10 to 100 nM

C=CC(=O)Nc1c(F)cccc1Nc1nc(Nc2ccc(N3CCN(C)CC3)cc2)ncc1Cl [Compound 39, N-{2-[(5-chloro-2-{[4-(4-methylpiperazin-1-yl)phenyl]amino}pyrimidin-4-yl)amino]-6-fluorophenyl}prop-2-enamide]
IC50 (SRC): 1 to 10 nM

C=CC(=O)Nc1cc(F)ccc1Nc1nc(Nc2ccc(N3CCN(C)CC3)cc2)ncc1Cl [Compound 40, N-{2-[(5-chloro-2-{[4-(4-methylpiperazin-1-yl)phenyl]amino}pyrimidin-4-yl)amino]-5-fluorophenyl}prop-2-enamide]
IC50 (SRC): 1 to 10 nM

C=CC(=O)Nc1cccc(F)c1Nc1nc(Nc2ccc(N3CCN(C)CC3)cc2)ncc1C(=O)Nc1c(C)cccc1Cl [Compound 42, N-(2-chloro-6-methylphenyl)-4-{[2-fluoro-6-(prop-2-enamido)phenyl]amino}-2-{[4-(4-methylpiperazin-1-yl)phenyl]amino}pyrimidine-5-carboxamide]
IC50 (SRC): 1 to 10 nM
IC50 (YES1): < 1 nM

C=CC(=O)Nc1ccc(C)cc1Nc1nc(Nc2ccc(N3CCN(C)CC3)cc2)nc2ccsc12 [Compound 46, N-{4-methyl-2-[(2-{[4-(4-methylpiperazin-1-yl)phenyl]amino}thieno[3,2-d]pyrimidin-4-yl)amino]phenyl}prop-2-enamide]
IC50 (SRC): 100 to 1000 nM
IC50 (YES1): 10 to 100 nM

C=CC(=O)Nc1ccc(C)cc1Nc1nc(Nc2ccc(N3CCN(C)CC3)cc2)nc2ccoc12 [Compound 47, N-{4-methyl-2-[(2-{[4-(4-methylpiperazin-1-yl)phenyl]amino}furo [3,2-d]pyrimidin-4-yl)amino]phenyl}prop-2-enamide]
IC50 (SRC): 100 to 1000 nM
IC50 (YES1): 10 to 100 nM

C=CC(=O)Nc1cccc(CNc2nc(Nc3ccc(N4CCN(C)CC4)cc3)ncc2C(=O)Nc2c(C)cccc2Cl)c1 [Compound 49]
IC50 (SRC): 10 to 100 nM

C=CC(=O)Nc1ccccc1CNc1nc(Nc2ccc(N3CCN(C)CC3)cc2)ncc1C(=O)Nc1c(C)cccc1Cl [Compound 50]
IC50 (SRC): 1 to 10 nM

C=CC(=O)Nc1ccc(CNc2nc(Nc3ccc(N4CCN(C)CC4)cc3)ncc2C(=O)Nc2c(C)cccc2Cl)cc1 [Compound 51]
IC50 (SRC): 10 to 100 nM

C=CC(=O)Nc1ccccc1Nc1nc(Nc2ccc(N3CCN(C)CC3)cc2)ncc1Cl [SM1-71, reference compound]
IC50 (SRC): 1 to 10 nM
IC50 (YES1): 1 to 10 nM

From patent US12365664B2, “Small molecule inhibitors of SRC tyrosine kinase” (Dana-Farber Cancer Institute, Inc., priority 2019, dated 2025)
